# In PubChem BioAssay (NCI):
#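 In this assay, cells in 96-well plates receive the compound at five concentrations for 48 hours. Endpoints are linearly interpolated between the surrounding concentrations. Abbreviation: GI50, concentration required for 50% inhibition of growth. TGI: total growth inhibition.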
# Key:
# Assay in all cases: NCI anticancer screen, dose series, 48 h
# 786-0 renal = system: 786-0 renal
# A498 renal = system: A498 renal
# ACHN renal = system: ACHN renal
# BT-549 breast = system: BT-549 breast
# CAKI-1 renal = system: CAKI-1 renal
# CCRF-CEM leukemia = system: CCRF-CEM leukemia
# DU-145 prostate = system: DU-145 prostate
# EKVX NSCLC = system: EKVX NSCLC
# HCC-2998 colon = system: HCC-2998 colon
# HL-60(TB) leukemia = system: HL-60(TB) leukemia
# HOP-62 NSCLC = system: HOP-62 NSCLC
# HOP-92 NSCLC = system: HOP-92 NSCLC
# HS 578T breast = system: HS 578T breast
# IGROV1 ovarian = system: IGROV1 ovarian
# K-562 leukemia = system: K-562 leukemia
# KM12 colon = system: KM12 colon
# LOX IMVI melanoma = system: LOX IMVI melanoma
# M14 melanoma = system: M14 melanoma
# MALME-3M melanoma = system: MALME-3M melanoma
# MDA-MB-231 breast = system: MDA-MB-231 breast
# MDA-MB-435 = system: MDA-MB-435
# MDA-MB-468 breast = system: MDA-MB-468 breast
# MOLT-4 leukemia = system: MOLT-4 leukemia
# NCI-H226 lung = system: NCI-H226 lung
# NCI-H23 lung = system: NCI-H23 lung
# NCI-H460 lung = system: NCI-H460 lung
# NCI-H522 lung = system: NCI-H522 lung
# NCI/ADR-RES ovarian = system: NCI/ADR-RES ovarian
# OVCAR-4 ovarian = system: OVCAR-4 ovarian
# OVCAR-5 ovarian = system: OVCAR-5 ovarian
# PC-3 prostate = system: PC-3 prostate
# SF-268 CNS = system: SF-268 CNS
# SF-295 CNS = system: SF-295 CNS
# SF-539 CNS = system: SF-539 CNS
# SK-MEL-2 melanoma = system: SK-MEL-2 melanoma
# SK-MEL-28 melanoma = system: SK-MEL-28 melanoma
# SK-MEL-5 melanoma = system: SK-MEL-5 melanoma
# SK-OV-3 ovarian = system: SK-OV-3 ovarian
# SN12C renal = system: SN12C renal
# SNB-19 CNS = system: SNB-19 CNS
# SNB-75 CNS = system: SNB-75 CNS
# SR leukemia = system: SR leukemia
# SW-620 colon = system: SW-620 colon
# T-47D breast = system: T-47D breast
# TK-10 renal = system: TK-10 renal
# U251 CNS = system: U251 CNS
# UACC-257 melanoma = system: UACC-257 melanoma
# UACC-62 melanoma = system: UACC-62 melanoma
# UO-31 renal = system: UO-31 renal
compound,measurement,setting,value
C=C(C)[C@@H]1CC[C@]2(C)[C@H](CC=C3[C@@H]4CC(C)(C)CC[C@]4(C(=O)N4CCOCC4)CC[C@]32C)[C@@]1(C)CCCN,GI50,786-0 renal,1.18 µM
same,TGI,786-0 renal,2.34 µM
same,GI50,A498 renal,1.41 µM
same,TGI,A498 renal,3.1 µM
same,GI50,ACHN renal,1.34 µM
same,TGI,ACHN renal,2.4 µM
same,GI50,BT-549 breast,9.16 µM
same,TGI,BT-549 breast,24 µM
same,GI50,CAKI-1 renal,1.23 µM
same,TGI,CAKI-1 renal,2.25 µM
same,GI50,CCRF-CEM leukemia,1.33 µM
same,TGI,CCRF-CEM leukemia,3.68 µM
same,GI50,DU-145 prostate,1.5 µM
same,TGI,DU-145 prostate,2.96 µM
same,GI50,EKVX NSCLC,1.37 µM
same,TGI,EKVX NSCLC,2.88 µM
same,GI50,HCC-2998 colon,1.22 µM
same,TGI,HCC-2998 colon,2.25 µM
same,GI50,HL-60(TB) leukemia,1 µM
same,TGI,HL-60(TB) leukemia,3.32 µM
same,GI50,HOP-62 NSCLC,1.39 µM
same,TGI,HOP-62 NSCLC,2.83 µM
same,GI50,HOP-92 NSCLC,1.25 µM
same,TGI,HOP-92 NSCLC,2.71 µM
same,GI50,HS 578T breast,1.4 µM
same,TGI,HS 578T breast,2.99 µM
same,GI50,IGROV1 ovarian,1.56 µM
same,TGI,IGROV1 ovarian,2.99 µM
same,GI50,K-562 leukemia,1.96 µM
same,TGI,K-562 leukemia,73.5 µM
same,GI50,KM12 colon,1.35 µM
same,TGI,KM12 colon,2.6 µM
same,GI50,LOX IMVI melanoma,1.25 µM
same,TGI,LOX IMVI melanoma,2.26 µM
same,GI50,M14 melanoma,1.43 µM
same,TGI,M14 melanoma,3.25 µM
same,GI50,MALME-3M melanoma,1.31 µM
same,TGI,MALME-3M melanoma,2.38 µM
same,GI50,MDA-MB-231 breast,1.37 µM
same,TGI,MDA-MB-231 breast,2.43 µM
same,GI50,MDA-MB-435,1.22 µM
same,TGI,MDA-MB-435,2.31 µM
same,GI50,MDA-MB-468 breast,1.2 µM
same,TGI,MDA-MB-468 breast,2.33 µM
same,GI50,MOLT-4 leukemia,1.73 µM
same,TGI,MOLT-4 leukemia,4.62 µM
same,GI50,NCI-H226 lung,2.78 µM
same,TGI,NCI-H226 lung,16.5 µM
same,GI50,NCI-H23 lung,1.31 µM
same,TGI,NCI-H23 lung,2.45 µM
same,GI50,NCI-H460 lung,1.19 µM
same,TGI,NCI-H460 lung,2.25 µM
same,GI50,NCI-H522 lung,1.34 µM
same,TGI,NCI-H522 lung,2.55 µM
same,GI50,NCI/ADR-RES ovarian,1.44 µM
same,TGI,NCI/ADR-RES ovarian,2.77 µM
same,GI50,OVCAR-4 ovarian,1.38 µM
same,TGI,OVCAR-4 ovarian,2.69 µM
same,GI50,OVCAR-5 ovarian,1.38 µM
same,TGI,OVCAR-5 ovarian,2.69 µM
same,GI50,PC-3 prostate,1.49 µM
same,TGI,PC-3 prostate,3.87 µM
same,GI50,SF-268 CNS,1.98 µM
same,TGI,SF-268 CNS,6.22 µM
same,GI50,SF-295 CNS,1.3 µM
same,TGI,SF-295 CNS,2.4 µM
same,GI50,SF-539 CNS,1.26 µM
same,TGI,SF-539 CNS,2.28 µM
same,GI50,SK-MEL-2 melanoma,1.43 µM
same,TGI,SK-MEL-2 melanoma,2.96 µM
same,GI50,SK-MEL-28 melanoma,1.24 µM
same,TGI,SK-MEL-28 melanoma,2.28 µM
same,GI50,SK-MEL-5 melanoma,1.56 µM
same,TGI,SK-MEL-5 melanoma,3.47 µM
same,GI50,SK-OV-3 ovarian,7.35 µM
same,TGI,SK-OV-3 ovarian,21.3 µM
same,GI50,SN12C renal,1.29 µM
same,TGI,SN12C renal,2.44 µM
same,GI50,SNB-19 CNS,2.12 µM
same,TGI,SNB-19 CNS,6.82 µM
same,GI50,SNB-75 CNS,2 µM
same,TGI,SNB-75 CNS,7.89 µM
same,GI50,SR leukemia,0.407 µM
same,TGI,SR leukemia,3.09 µM
same,GI50,SW-620 colon,1.19 µM
same,TGI,SW-620 colon,2.27 µM
same,GI50,T-47D breast,1.86 µM
same,TGI,T-47D breast,4.7 µM
same,GI50,TK-10 renal,1.64 µM
same,TGI,TK-10 renal,4.36 µM
same,GI50,U251 CNS,1.28 µM
same,TGI,U251 CNS,2.39 µM
same,GI50,UACC-257 melanoma,1.29 µM
same,TGI,UACC-257 melanoma,2.61 µM
same,GI50,UACC-62 melanoma,1.56 µM
same,TGI,UACC-62 melanoma,3.56 µM
same,GI50,UO-31 renal,1.35 µM
same,TGI,UO-31 renal,3.2 µM
